pIC50: −log10 of the molar value. Counter-ions that a name gives are not always drawn.
Experiments:
[1] = system: human pancreatic cancer cells (HPAC); assay: Antiproliferative effect on cancer cells (in vitro), sulforhodamine B method, HPAC; format: cell-based; settings: 5 days incubation with test compound
Method: (§1) Growth inhibition of human hepatic cancer cells (HuH-7) was determined by the sulforhodamine B method based on the method of Skehan P. et al. (J Natl Cancer Inst. 1990 Jul. 4; 82(13): 1107-12). In the study, HuH-7 cells were seeded on DMEM medium containing 10% fetal bovine serum in a 96-well microplate. After 24-hour incubation at 37° C. in the presence of 5% carbon dioxide, the test compound was added and the cells were incubated for another 5 days. After incubation, a trichloroacetic acid solution was added to yield the final concentration of 10% and the cells were left to stand at 4° C. for 1 hour to fix. Then, the cells were washed with water to remove the medium and trichloroacetic acid and dried in the air. The dried cells were stored at 4° C. until they were stained with sulforhodamine B. To each well, 1% acetic acid solution containing 0.4% sulforhodamine B was added and left to stand for 20 to 30 minutes at room temperature. After discarding the supernatant, each well was washed with 1% acetic acid solution, and 10 mM Tris ([…]) solution was added while stirring to elute the dye taken into the cells. Then, the optical density was determined at the measurement wavelength of 492 nm and the reference wavelength of 690 nm, and the difference was calculated. The cell growth activity in each well was defined as the value determined by subtracting the OD in the control well not containing cells (the difference in absorbance between 492 nm and 690 nm) from that in the test well.
(§2) The 50% inhibitory concentration (IC50 (nM)) of the test compound was determined by comparing the cell growth activity in the well containing the test compound with that of the control not containing the test compound.
The growth inhibition on human pancreatic cancer cells (HPAC) was also determined by the above method using HPAC instead of HuH-7 and RPMI 1640 medium containing 10% fetal bovine serum instead of the DMEM medium containing 10% fetal bovine serum.

[2] = system: human hepatic cancer cells (HuH-7); assay: Antiproliferative effect on cancer cells (in vitro), sulforhodamine B method, HuH-7; format: cell-based; settings: HuH-7 cells, 5 days incubation with test compound
Method: as §1, §2

[3] = system: human chronic myelocytic leukemia cells (KU812); assay: Antiproliferative effect on cancer cells (in vitro), WST-8 assay, KU812; format: cell-based; settings: 5 days incubation with test compound
Method: The growth inhibition on human chronic myelocytic leukemia cells (KU812) was determined by a WST-8 assay according to the method of Singh A K, et al. (Cancer Lett. 1996 Oct. 1; 107(1): 109-15.). In this method, KU812 cells were seeded in RPMI 1640 medium containing 10% fetal bovine serum in a 96-well microplate and incubated at 37° C. for 24 hours in the presence of 5% carbon dioxide. Then, the test compound was added and the cells were incubated for another 5 days. After incubation, 15 μL of 5 mM WST-8 (2-(2-methoxy-4-nitrophenyl)-3-(4-nitrophenyl)-5-(2,4-disulfenyl)-2H-tetrazolium, monosodium salt) was added and the cells were incubated for 2 hours. After the 2-hour incubation, 15 μL of 1% SDS (sodium dodecyl sulfate) was added and the optical density was determined at the measurement wavelength of 450 nm and the reference wavelength of 630 nm, and the difference was calculated. The cell growth activity in each well was defined as the value determined by subtracting the OD in the control well not containing cells (the difference in absorbance between 492 nm and 690 nm) from that in the test well.
as §2

STAT3 = assay: Inhibitory effect on IL-6-induced STAT3 phosphorylation in human myeloma cells (in vitro); format: cell-based; settings: U266B1 human myeloma cells, IL-6 1 ng/mL, pSTAT3 (Y705) by flow cytometry
Method: The inhibitory effect of the test compound on phosphorylation of STAT3 (signal transducer and activator of transcription-3) in human myeloma cells ([…]) induced by interleukin-6 (IL-6) was examined using the modified method of Tochizawa S. et al. (J Immunol Methods. 2006 Jun. 30; 313(1-2): 29-37). In the study, U266B1 cells were seeded in an RPMI 1640 medium containing 10% fetal bovine serum (FBS) in a 12-well plate and incubated at 37° C. for 2 hours in the presence of carbon dioxide. After incubation, IL-6 was added to yield the concentration of 1 ng/mL and the cells were incubated at 37° C. for 15 minutes in the presence of 5% carbon dioxide. After fixation of the cells by the addition of a buffer containing formaldehyde (Lyse/Fix Buffer, BD Biosciences) at room temperature for 10 minutes, the suspension was centrifuged to remove the supernatant and the cells were treated with ice-cold methanol for 10 minutes to improve the permeability of the cell membrane. The cells were centrifuged to remove methanol and washed twice with Dulbecco's phosphate buffered saline (D-PBS) containing 2% fetal bovine serum (FBS). A fluorescence-labeled anti-phosphorylated STAT3 (pSTAT3) antibody (Alexa Fluor 488-labeled anti-pSTAT3 (Y705) antibody, BD Biosciences) was added for staining in an ice bath for 30 minutes.
The cells were washed once with 2% FBS-containing D-PBS and suspended in 2% FBS-containing D-PBS, and the fluorescence intensity was determined using a flow cytometer (FACS Sort, BD Biosciences). The ratio of fluorescence intensity in the test group to the control group (T/C) was determined from the difference in the geometric mean of pSTAT3 fluorescence intensity between the test compound group of each concentration and the non-stimulated control group according to the following equation by defining the difference in the geometric mean of pSTAT3 fluorescence intensity between the IL-6 induced control and the non-stimulated control as 100%. T/C(%)=([…] of pSTAT3 fluorescence intensity in the cells treated with the test compound—geometric mean of pSTAT3 fluorescence intensity in non-stimulated control)/(geometric mean of fluorescence intensity of IL-6-induced pSTAT3 in the control−geometric mean of pSTAT3 fluorescence intensity in non-stimulated control)×100.
The concentration of the test compound inhibiting phosphorylation of STATS at 50% (IC50; concentration of the test compound corresponding to 50% T/C(%)) was determined using T/C(%) values at the respective concentrations and defined as the index for the inhibitory activity.

[4] = system: LI90 cells, a human hepatic stellate cell line; assay: Inhibitory effect on collagen synthesis (in vitro); format: cell-based; settings: in the presence of recombinant human TGF-β1, 3H-proline labelled collagen in supernatant
Method: Inhibitory Effect on Collagen Synthesis (In Vitro)
LI90 cells, a human hepatic stellate cell line, were suspended in DMEM (Dulbecco's modified eagle medium) supplemented with 10% inactivated FBS (fetal bovine serum), seeded on a 12-well plate and cultured in a CO2 incubator (preset temperature: 37° C., preset CO2 concentration: 5%). After being cultured for 24 hours, the cells were washed with D-PBS (Dulbecco's phosphate buffered saline), placed in MEM (Eagle's minimum essential medium) supplemented with 0.1% inactivated FBS and then cultured in a CO2 incubator. After being cultured for 3 days, the cells were again washed with D-PBS, placed in MEM (Eagle's minimum essential medium) supplemented with 0.1% inactivated FBS and treated with or without a test compound in the presence of […] recombinant human TGF-β1 (transforming growth factor-β1) in a CO2 incubator for 16 hours. After the incubation, the cells were washed with D-PBS and the medium was replaced with MEM containing 0.25 mM ascorbate. A radio-labeled compound, ^3H-proline, was then added to the culture medium to radio-label the collagen proteins produced. After being cultured for 24 hours, the supernatant was collected and the collagen proteins were extracted from the supernatant as acid-soluble fractions. The amount of collagen produced was determined by measuring the radioactivity contained in the fractions. A concentration of test compound that produced 50% inhibition [IC50 value (nM)] on collagen synthesis was calculated by comparing the radioactivity count in a supernatant of test-compound-treated cells with that of untreated cells (control).

Row | pIC50 ([1]; Homo sapiens, 120 h) | pIC50 ([2]; Homo sapiens, 120 h) | melting point [°C] | pIC50 ([3]; Homo sapiens, 120 h) | pIC50 (STAT3) | pIC50 [4] | pIC50 [1] | pIC50 [2] | pIC50 [3] | Compound
1 | > 7.15 | > 8.00 | 167 to 169 | > 8.70 |  |  |  |  |  | CCc1ccc(CN2CCN(C(=O)c3cc4cc(Oc5ccc(N(C)C(=O)c6ccc(C(F)(F)F)cc6)cn5)ccc4n3C)CC2)cc1.O=C(O)C(=O)O [Example 391, N-(6-{2-[4-(4-Ethylbenzyl)piperazine-1-carbonyl]-1-methyl-1H-indol-5-yloxy}pyridin-3-yl)-N-methyl-4-trifluoromethylbenzamide oxalate]
2 | > 7.15 | > 8.00 |  | > 8.70 | > 8.00 |  |  |  |  | COc1ccc(CN2CCN(C(=O)c3cc4cc(Oc5ccc(N(C)C(=O)c6ccc(C(F)(F)F)cc6)cn5)ccc4n3C)CC2)cc1 [Example 338, N-(6-{2-[4-(4-Methoxybenzyl)piperazine-1-carbonyl]-1-methyl-1H-indol-5-yloxy}pyridin-3-yl)-N-methyl-4-trifluoromethylbenzamide maleate]
3 | > 7.15 | > 8.00 | 225 to 226.4 | > 8.70 | > 8.00 | > 8.00 |  |  |  | Br.CN(C(=O)c1ccc(C(F)(F)F)cc1)c1ccc(Oc2ccc3cc(C(=O)N4CCN(Cc5ccc(OCC(F)(F)F)cc5)CC4)n(C)c3c2)nc1 [Example 436, N-Methyl-N-[6-(1-methyl-2-{4-[4-(2,2,2-trifluoroethoxy)benzyl]-piperazine-1-carbonyl}-1H-indol-6-yloxy)pyridin-3-yl]-4-tri-fluoromethylbenzamide hydrobromide]

Further lines, the compound ahead of its results:

Row | Compound | pIC50 ([1]; Homo sapiens, 120 h) | pIC50 ([2]; Homo sapiens, 120 h) | melting point [°C] | pIC50 ([3]; Homo sapiens, 120 h) | pIC50 (STAT3) | pIC50 [4] | pIC50 [1] | pIC50 [2] | pIC50 [3]
4 | CC(C)Oc1ccc(CN2CCN(C(=O)c3cc4cc(Oc5ccc(N(C)C(=O)c6ccc(C(F)(F)F)cc6)cn5)ccc4n3C)CC2)cn1.O=C(O)/C=C\C(=O)O [Example 424, N-(6-{2-[4-(6-Isopropoxypyridin-3-ylmethyl)piperazine-1-carbonyl]-1-methyl-1H-indol-5-yloxy}pyridin-3-yl)-N-methyl-4-tri-fluoromethylbenzamide maleate] | > 7.15 | > 8.00 | 157 to 159 | > 8.70 |  | > 8.00 |  |  | 
5 | Cn1c(C(=O)N2CCN(Cc3ccc(-c4csnn4)cc3)CC2)cc2ccc(Oc3ccc(NC(=O)c4ccc(C(F)(F)F)cc4)cn3)cc21 [Example 571, N-(6-{1-Methyl-2-[4-(4-[1,2,3]thiadiazol-4-ylbenzyl)piperazine-1-carbonyl]-1H-indol-6-yloxy}pyridin-3-yl)-4-trifluoromethyl-benzamide] | > 7.15 | > 8.00 | 220 to 220.8 | > 8.70 |  |  |  |  | 
6 | COc1ccc(S(=O)(=O)N(C)c2ccc(Oc3ccc4cc(C(=O)N5CCN(Cc6ccc(OCC(F)(F)F)cc6)CC5)n(C)c4c3)nc2)cc1.Cl [Example 73, 4-Methoxy-N-methyl-N-[6-(1-methyl-2-{4-[4-(2,2,2-trifluoro-ethoxy)benzyl]piperazine-1-carbonyl}-1H-indol-6-yloxy)pyridin-3-yl]benzenesulfonamide hydrochloride] | > 7.15 | > 8.00 | 213.4 to 214.1 | > 8.70 |  |  |  |  | 
7 | Br.CC(C)Oc1ccc(CN2CCN(C(=O)c3cc4ccc(Oc5ccc(NC(=O)c6ccc(C(F)(F)F)cc6Cl)cn5)cc4n3C)CC2)cc1 [Example 253, 2-Chloro-N-(6-{2-[4-(4-isopropoxybenzyl)piperazine-1-carbonyl]-1-methyl-1H-indol-6-yloxy}pyridin-3-yl)-4-trifluoromethylbenzamide hydrobromide] | > 7.15 | > 8.00 | 237.2 to 238.2 | > 8.70 |  | > 8.00 |  |  | 
8 | Cc1c(Oc2ccc(N(C)C(=O)c3ccc(C(F)(F)F)cc3)cn2)ccc2c1cc(C(=O)N1CCN(Cc3ccc(C(C)C)cc3)CC1)n2C [Example 428, N-(6-{2-[4-(4-Isopropylbenzyl)piperazine-1-carbonyl]-1,4-dimethyl-1H-indol-5-yloxy}pyridin-3-yl)-N-methyl-4-trifluoro-methylbenzamide hydrobromide] |  |  |  |  |  | > 8.00 | > 7.15 | > 8.00 | > 8.70

Source: patent US8551999B2, “Heterocyclic compound and pharmaceutical composition thereof” (Otsuka Pharmaceutical Co., Ltd., priority 2007, dated 2013)
